Values after ≈ are worked out from the molar mass of the structure shown.
Assay: Solubility in pH 6.8 buffer by high throughput solubility assay
Assay type: physicochemical

solubility	Structure (SMILES)
5.7 µg/mL (≈ 11.5 µM)	O=C(CCCN1c2ccccc2N(Cc2ccc(C(O)C(F)(F)F)cc2)S1(=O)=O)N1CCCC1 (stereo not drawn)
0.45 µg/mL (≈ 0.796 µM)	O=C(CCCN1c2ccccc2N(Cc2ccc(C(O)(C(F)(F)F)C(F)(F)F)cc2)S1(=O)=O)N1CCCC1
0.6 µg/mL (≈ 1.28 µM)	CCC(CC)c1ccc(CN2c3ccccc3N(CCCC(=O)N3CCCC3)S2(=O)=O)cc1

Source: ChEMBL document CHEMBL3400123, “Discovery of 1,3-dihydro-2,1,3-benzothiadiazole 2,2-dioxide analogs as new RORC modulators” (Bioorg Med Chem Lett, 2015)
